“And” between values parts separate entries of the source, which are not always exact repeats. Identical values can stand only once.
Assays:
clinical = details: female, human, in vivo
Protocol: (§1) The study was a phase 1, double-blind, randomized, placebo-controlled, sequential-panel, ascending single- and multiple-dose study in healthy premenopausal women. Ten groups, each of 12 healthy premenopausal, adult women, participated in the study (Cohorts 1 to 10).
Cohorts 1 to 6 were referred to as the single-rising dose (SRD) portion of the study, where cohorts were dosed in an escalating fashion. All subjects in a given cohort received their dose of study medication on the same day with the exception of subjects in Cohort 1, which were split into 2 subcohorts (Cohorts 1a and 1b). Dosing between these 2 subcohorts was separated by a minimum of 2 days. Dosing between subsequent cohorts was separated by a minimum of 7 days. The decision to proceed to Cohort 1b was made by the investigator after a minimum 48-hour evaluation of subjects in Cohort 1a. The decision to escalate the dose for the remaining cohorts in the SRD portion was based on review of the safety and pharmacokinetic data for all subjects in the previous cohort.
Subjects were required to fast overnight (minimum 10 hours) prior to dosing and continued to fast for 4 hours following dosing. Subjects were given a menu for the dosing period to include 2 meals and an evening snack, each containing approximately 25% fat content. Six ascending dose groups were planned: 1.0 mg (Cohort 1), 5.0 mg (Cohort 2), 10 mg (Cohort 3), 20 mg (Cohort 4), 40 mg (Cohort 5), and 80 mg (Cohort 6). Subjects in each of Cohorts 1a, 1b, 2, 3, 4, 5 and 6 received drug dosing on a single day only.
Cohorts 1 to 7 were each composed of 12 healthy premenopausal women aged 18 to 49 years, inclusive. […] In one sequence, dosing was under fasting conditions (minimum 10 hours). In the other sequence, dosing was approximately 30 minutes after the start of a high-fat, high calorie breakfast (provided approximately 1000 calories, with 50% of the calories from fat).
Cohorts 8 to 10 were each composed of 12 healthy premenopausal women aged 18 to 45 years, inclusive. Cohorts 8 to 10 were referred to as the multiple-rising dose (MRD) portion of the study, where cohorts were dosed in escalating fashion. The MRD portion was not started until all the blinded safety and pharmacokinetic data from the SRD cohorts had been assessed by the investigator and the sponsor. […] Subjects received the first dose of study medication (Day 1) within 2 to 7 days following the onset of their menstrual cycle. Three ascending dose groups were planned: 10 mg once-daily (QD) (Cohort 8), 20 mg QD (Cohort 9), and 40 mg QD (Cohort 10). Subjects in each of Cohorts 8 to 10 received drug dosing on 14 days (Days 1 to 14).
Subjects had to drink all of the water provided with the dose of study drug. Subjects were able to consume water ad libitum with the exception of 1 hour prior to and 1 hour after drug administration, not including the 240 mL of water taken with dosing.
To assess the food effect, an analysis of variance was performed using Cohort 7 log(mean Cmax), log(area under the plasma drug concentration-time curves [mean plasam AUCs]) as dependent variable; treatment, sequence, period as fixed effects; and subject (seq) as a random effect.

[1] = Example 4: pharmacodynamics (serum hormones, urine 6β-hydroxycortisol to cortisol ratio); assay type: in vivo, human; details: in vivo
From the text: (§2) Descriptive statistics were used to summarize pharmacodynamic parameters: serum concentrations of estradiol (E2), FSH, LH, progesterone, growth hormone (GH), prolactin (PRL), thyrotropin, adrenocorticotropic hormone (ACTH) and urine 6β-hydroxycortisol to cortisol ratios (Q).

[2] = system: estradiol (E2), FSH, LH, progesterone; assay: as above; assay type: in vivo, human; details: 10 mg to 40 mg QD
From the text: as §2

[3] = system: healthy premenopausal women; assay: Example 4: safety and tolerability; assay type: in vivo, human; details: single doses up to 80 mg, up to 40 mg QD for 14 days
From the text: as §1
Serum chemistry, hematology, urinalysis, vital signs, and ECGs were monitored during the study up to 1 week after the last dose. There were no meaningful changes in these parameters in the Compound 1 dose groups compared with placebo. QT and corrected QT interval (QTc) intervals >450 msec and […] were seen across all dose groups, including the placebo group.

[4] = Example 9 6-week phase 1 study with or without E2/NETA: pharmacokinetics; assay type: in vivo; details: female, human, plasma, 40 mg; for half-life: plasma Compound 1 t1/2, mean (SD); for Tmax: plasma Compound 1 tmax, median (min, max)
From the text: Methods: This was a 6-week phase 1, randomized, open-label, parallel-group, study conducted at 4 sites in the US. […] The first day of dosing occurred on Day 1 to 6 of the menstrual cycle. Hormonal preparations were prohibited for at least 3 months prior to screening. […] Vasomotor symptoms were captured using a daily diary (from screening until follow-up).

FIG. 5B = assay: FIG. 5B
From the text: Table printed on a drawing sheet, FIG. 5B
The patent's description of the figure: FIGS. 5A-C are tables of plasma pharmacokinetic (PK) parameters for Cohorts 1 to 6 in accordance with Example 4.
First reader's note: Plasma PK parameters by dose cohort; the series starts in FIG. 5A on another sheet and continues in FIG. 5C.

FIG. 6A = assay: FIG. 6A
Protocol: Table printed on a drawing sheet, FIG. 6A
(§3) The patent's description of the figure: FIGS. 6A-C are tables of plasma PK parameters for Cohort 7 in accordance with Example 4.
First reader's note: Plasma PK parameters for the fed and fasted 40 mg arms; the table continues in FIGS. 6B-C on other sheets.

FIG. 6B = assay: FIG. 6B
Protocol: Table printed on a drawing sheet, FIG. 6B
as §3
First reader's note: Part of a plasma PK table series (FIGS. 6A-C) for Cohort 7; each column is a fed or fasted 40 mg arm.

For `CONC(=O)Nc1ccc(-c2sc3c(c2CN(C)C)c(=O)n(-c2ccc(OC)nn2)c(=O)n3Cc2c(F)cccc2F)cc1` [Compound 1, N-(4-(1-(2,6-difluorobenzyl)-5-((dimethylamino)methyl)-3-(6-methoxy-3-pyridazinyl)-2,4-dioxo-1,2,3,4-tetrahydrothieno[2,3-d]pyrimidin-6-yl)phenyl)-N′-methoxyurea], the CL renal (clinical) was 95 to 138 mL/min, the “Tmax, all subjects” value (clinical) was ≤ 2 h and the half-life (clinical) was 14 to 16 h. For the same compound, the “mean Fe (fraction of dose excreted in urine)” value (clinical) was “less than 3%”, the “median Tmax” value (clinical) was 1 to 1.48 h and the half-life (clinical; 1 mg) was ~6 h. The Tmax (clinical; 80 mg, median Tmax) was 4 h, the “effect on endogenous GH, PRL, thyrotropin, and ACTH” value [1] was “no apparent effect” and the “ovulation (post-ovulation progesterone increase)” value [2] was “prevented ovulation”. The safety and tolerability [3] was “safe and well tolerated”, the AUC(0-t) ([4]; Compound 1 AUC0-24, geometric mean (CV%), Week 6) was 116 ng·h/mL and the Cmax ([4]; Compound 1 Cmax, geometric mean (CV%), Week 6) was 17.6 ng/mL. The AUC(0-t) ([4]; plasma Compound 1 AUC0-24, mean (SD), Week 3) was 133 ng·h/mL, the AUC(0-t) ([4]; plasma Compound 1 AUC0-24, mean (SD), Week 6) was 125 ng·h/mL and the concentration at 3 week ([4]; plasma Compound 1 Cavg, mean (SD), Week 3) was 5.53 ng/mL. The concentration at 6 week ([4]; plasma Compound 1 Cavg, mean (SD), Week 6) was 5.2 ng/mL, the Cmax ([4]; plasma Compound 1 Cmax, mean (SD), Week 3) was 21.8 ng/mL and the Cmax ([4]; plasma Compound 1 Cmax, mean (SD), Week 6) was 19.5 ng/mL. For the same compound, the concentration at 3 week ([4]; plasma Compound 1 Ctrough, mean (SD), Week 3) was 2.57 ng/mL, the concentration at 6 week ([4]; plasma Compound 1 Ctrough, mean (SD), Week 6) was 2.45 ng/mL and the half-life ([4]; Week 3) was 16.7 h. It also gave a half-life ([4]; Week 6) of 17.1 h, a Tmax ([4]; Week 3) of 2.02 h and a Tmax ([4]; Week 6) of 2 h. For the same compound, the “Tmax (hr) | Median” value (FIG. 5B) was 0.775 h and 1.015 h and 1.500 h, the “AUC (O-inf) (ng*hr/mL) | Mean” value (FIG. 6A) was 63.437 ng·h/mL and 125.275 ng·h/mL and the “AUC (O-tlqc) (ng*hr/mL) | Mean” value (FIG. 6A) was 55.792 ng·h/mL and 110.782 ng·h/mL. For the same compound, the “Lambda_z (1/hr) | Mean” value (FIG. 6B) was 0.04147 h⁻¹ and 0.04013 h⁻¹, the “T1/2 (hr) | Mean” value (FIG. 6B) was 16.9911 h and 17.6896 h and the “Tmax (hr) | Median” value (FIG. 6B) was 3.005 h and 3.980 h.

From patent US11957684B2, “Treatment of heavy menstrual bleeding associated with uterine fibroids” (Sumitomo Pharma Switzerland GmbH, priority 2016, dated 2024)
